Columns and labels:
DNA-MIF/PAAN complex = biological target: T1, DNA-MIF/PAAN complex (Homo sapiens, UniProt P14174); experiment: Electrophoretic mobility shift assay (EMSA) of PAAN/MIF with biotin-labeled DNA substrate (PS30); assay type: binding; details: 1-100 μM
T1 construct: GST (N, cleaved yes); made in house; host or cells: Escherichia coli
Protocol: Electrophoretic mobility shift assay (EMSA). EMSA assays were performed using the Light-Shift Chemiluminescent EMSA kit (Thermo Scientific) following the manufactures instruction. Recombinant PAAN/MIF protein (2 μM) was incubated with 1-100 μM PAANIB-1 as indicated in the binding buffer containing 10 mM MgCl2 for 10 min and further incubated with biotin-labeled DNA substrates (10 nM) for 30 min on ice. The mixture were separated on 6% retardation polyacrylamide and transferred to a Nylon membrane. Immunoblot analysis was performed to detect the biotin-labeled DNA using the Chemiluminescent Nucleic Acid Detection Module (Thermo Scientific).

PAAN/MIF WT or variants = experiment: Biolayer interferometry (ForteBio Octet) binding assay; parameters: species or system human
Text: Purification of PAAN/MIF recombinant proteins. Human PAAN/MIF (NM_002415) cDNA and its variants were subcloned into pGEX-6β-1 vector (GE Healthcare) and mutants were generated using a QuikChange site-directed mutagenesis kit (Stratagene). The sequences were confirmed by automated DNA sequencing. The protein was expressed and purified from Escherichia coli by glutathione sepharose (GE Healthcare). The GST tag was subsequently proteolytically removed. GST protein was used as a negative control in the nuclease assay and PAAN/MIF proteins purified by FPLC using Superdex 200 10/300GL column (GE Healthcare, Life Sciences) were also used in the nuclease assays.
Biolayer interferometry assay. The dose-dependent binding of compound 121 for PAAN/MIF WT or PAAN/MIF variants were determined by a biolayer interferometry assay using Octet RED96 (ForteBio). See Guo et al. (2018) Nat. Chem. 11:254-63. All the proteins used in this assay were tagged with GST. Anti-GST biosensor tips (ForteBio) were used to immobilize the GST proteins after prewetting with 1X kinetic buffer (ForteBio). The equilibrated GST biosensors were loaded with PAAN/MIF WT or variants (25 μg/ml). Background binding controls were measured by sensors that were incubated in buffer without proteins. All assays were performed by a standard protocol in 96-well black plates (Greiner Bio) with a total volume of 200 μl per well. All the data were analyzed by Octet data analysis software.

mouse cortical neurons = experiment: Pulsed-field gel electrophoresis of α-syn PFF-induced DNA damage in mouse cortical neurons; assay type: cell-based
Protocol: (§1) Preparation and quantification of genomic DNA. The striatum was rapidly removed from the brain and lysed by repetitive pipetting with a micropipette in lysis buffer [100 mM NaCl, 10 mM Tris-HCl (pH 8.0), 25 mM EDTA (pH 8.0), 0.5% SDS] with 0.2 mg/ml proteinase K (Roche Diagnotics). Samples were incubated 55° C. for overnight and further incubated 85° C. for 45 m to inactivate proteinase K. The genomic DNA were immediately separated on a 1.2% pulse field certified agarose in 0.5×TBE buffer with initial switch time of 1.5 s and a final switch time of 3.5 s for 12 h at 6 V/cm. The gel was then stained with […] Ethidium Bromide (EtBr) and visualized on UV light. Noncleaved genomic DNA was quantified as percentage (%) of the total genomic DNA that included both noncleaved genomic DNA and cleaved genomic DNA in each individual group.
Cell culture, transfection, primary neuronal culture and treatment. SH-SY5Y cells (ATCC) were cultured in DMEM containing 10% fetal bovine serum and penicillin/streptomycin at 37° C. under 5% C02. The cells were transfected using PolyFect reagent (Qiagen). Parthanatos was induced by the treatment of 50 μM MNNG for 15 min in SH-SY5Y cells. ABT-888 or PAAN/MIF inhibitors were pretreated with indicated concentration 1 h before MNNG treatment and cell death were assessed after 24 h. […]

PARP-1 = biological target: T2, PARP-1 (Homo sapiens, UniProt P09874); experiment: In vitro ribosylation assay (IVRA) of PARP-1; assay type: biochemical; details: 1 μM
T2 construct: purchased Trevigen
Protocol: In vitro ribosylation assay of PARP-1. […] of recombinant PARP-1, activated DNA and NAD+(Trevigen) in the presence or absence of 1 μM of PARP-1 inhibitor, ABT-888 or PAAN/MIF inhibitors (compound 56 or 121) were incubated in the PARP assay buffer (Trevigen) for 30 m at room temperature and analyzed by immunoblot analysis using PAR antibody.

human cortical neurons = experiment: Pulsed-field gel electrophoresis of α-syn PFF-induced DNA damage in human cortical neurons; assay type: cell-based
Protocol: as §1
Preparation of human cortical neurons. Human H1 embryonic stem cells (ESCs) were differentiated into cortical neurons as previously described. See Xu et al. (2016) Sci. Transl. Med. 8:333ra48. Briefly, ESC colonies detached from mouse embryonic fibroblasts (MEFs) were grown in suspension in human ESC medium without FGF2 for 6 days in low-attachment six-well plates (Corning). On day 7, free-floating embyroid bodies (EB)s were transferred to Matrigel coated plates to allow the complete attachment of EB and formation of rosette neuronal aggregates (RONAs). […]

T2 sequence (P09874 whole entry): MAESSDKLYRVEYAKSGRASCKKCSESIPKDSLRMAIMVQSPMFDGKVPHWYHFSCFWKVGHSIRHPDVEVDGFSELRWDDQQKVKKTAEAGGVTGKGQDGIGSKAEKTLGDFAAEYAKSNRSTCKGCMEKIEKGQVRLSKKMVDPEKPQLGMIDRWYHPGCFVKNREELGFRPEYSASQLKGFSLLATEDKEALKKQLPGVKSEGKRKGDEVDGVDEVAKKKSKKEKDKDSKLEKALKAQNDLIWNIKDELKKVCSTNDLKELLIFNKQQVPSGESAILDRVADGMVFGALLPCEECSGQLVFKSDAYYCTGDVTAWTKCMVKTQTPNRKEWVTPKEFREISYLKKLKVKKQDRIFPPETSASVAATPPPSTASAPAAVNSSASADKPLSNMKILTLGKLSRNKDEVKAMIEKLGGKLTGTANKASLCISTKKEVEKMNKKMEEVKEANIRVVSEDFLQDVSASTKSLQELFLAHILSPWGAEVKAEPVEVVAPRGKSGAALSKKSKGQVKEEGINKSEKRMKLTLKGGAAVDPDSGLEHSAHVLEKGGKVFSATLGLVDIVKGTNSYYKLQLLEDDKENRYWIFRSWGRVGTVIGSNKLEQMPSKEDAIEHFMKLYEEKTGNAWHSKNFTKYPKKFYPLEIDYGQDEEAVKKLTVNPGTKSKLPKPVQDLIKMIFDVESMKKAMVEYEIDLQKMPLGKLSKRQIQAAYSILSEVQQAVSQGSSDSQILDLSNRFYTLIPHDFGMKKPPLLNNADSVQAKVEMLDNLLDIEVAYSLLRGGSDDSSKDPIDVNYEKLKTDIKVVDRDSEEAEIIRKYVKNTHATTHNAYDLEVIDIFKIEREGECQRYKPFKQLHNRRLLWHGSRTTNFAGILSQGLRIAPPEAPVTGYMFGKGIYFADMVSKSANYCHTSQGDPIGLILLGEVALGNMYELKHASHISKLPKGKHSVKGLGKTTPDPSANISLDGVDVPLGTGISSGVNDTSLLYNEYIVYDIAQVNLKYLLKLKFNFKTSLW
T1 sequence (P14174 whole entry, one chain of several): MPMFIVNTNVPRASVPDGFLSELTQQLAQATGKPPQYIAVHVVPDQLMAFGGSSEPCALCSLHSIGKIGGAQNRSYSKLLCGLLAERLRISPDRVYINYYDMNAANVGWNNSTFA

Compound	interaction of PAAN/MIF with its substrate (DNA-MIF/PAAN complex)	direct binding of PAAN/MIF WT and Y99A mutant (PAAN/MIF WT or variants)	direct binding of mutants L61A, N72A and 60-63A (PAAN/MIF WT or variants)	genomic DNA cleavage in mouse cortical neurons treated with α-syn PFF (mouse cortical neurons)	ABT-888 sensitive PARP activity (PARP-1)	genomic DNA cleavage in human cortical neurons treated with human α-syn PFF (human cortical neurons)
COc1ccc(CC[C@H]2OC(=O)[C@@H]3CCCCN3C(=O)C(=O)C(C)(C)COC(=O)C=CCCN(C)C(=O)[C@@H]3CCCN3C(=O)[C@H](COC(C)(C)C)N(C)C(=O)C(c3ccccc3)NC(=O)[C@H](C)N(C)C(=O)COc3cc(F)cc2c3)cc1OC (mixture of isomers) [compound 121]	does not disrupt	exhibited binding	remarkably decreased	protected against genomic DNA cleavage	failed to inhibit	
COc1ccc(CC[C@H]2OC(=O)[C@@H]3CCCCN3C(=O)C(=O)C(C)(C)COC(=O)C=CCCN(C)C(=O)[C@@H]3CCCN3C(=O)[C@H](COC(C)(C)C)N(C)C(=O)C(c3ccccc3)NC(=O)[C@H](C)N(C)C(=O)COc3cccc2c3)cc1OC (stereo partly drawn) [compound 56]				protected against genomic DNA cleavage	failed to inhibit	prevented genomic DNA cleavage
COc1ccc(CC[C@H]2OC(=O)[C@@H]3CCCCN3C(=O)C(=O)C(C)(C)COC(=O)C=CCCN(C)C(=O)[C@H](C)NC(=O)[C@H](C(C)C)N(C)C(=O)[C@@H](Cc3ccccc3)NC(=O)[C@H](CC(C)C)N(C)C(=O)CCC(=O)Nc3cccc2c3)cc1OC [compound 77]						prevented genomic DNA cleavage
